Source: US20220280679A1, “Prophylactic Gel Compositions and Use as Barriers to Bacterial and Viral Colonization” (Innovation Chemical and Enviromental Technologies, Inc., priority 2021, published 2022)
Where two headings read alike, the source gives them in different places.

How the values were obtained:
Format in all cases: cell-based
tissue explants = assay: MTT biocompatibility assay, relative viability of tissue explants
Description: Biocompatibility assays were performed by PerfectUs Biomed group (formerly Extherid) on the samples of IC-2B2 samples from Example 2, Table 2B.2
MTT assays returns relative viability of tissue through calorimetric analysis. Results are reported as percent viability compared to the non-irritative PBS control, which represents 100% viability for each of the four test conditions.
Because 100% viability for each trial is represented by the colorimetric average of the 3 explants treated with PBS. viability greater than 100% indicates UT20 formulations impart cytoprotective effects compared to the neutral PBS control.

porcine vaginal mucosa = assay: Preliminary histology score, porcine tissue (PMM)
From the text: (§1) Active compositions are compared against a commercial control (UT20 58-164-4), a non-irritative control (PBS, phosphate buffered saline), a mild irritant control (1% TX-100, Triton X-100 surfactant).
(§2) The histology reflects a combination of the limits of each tissue models in addition to the reaction to variously added agents. SDS is clearly toxic to the tissue models and the addition of TX100 to the porcine vaginal mucosa removed the ability to assess unambiguously the effect of LPS with a surface active agent such as TX100.

porcine nasal tissue = assay: Histology scoring on porcine nasal mucosa
Description: A panel of controls for preliminary model development was assessed for biocompatibility properties on Porcine nasal tissue via MTT, and ELISA Assays.
In Table 16, histology scoring of NS A (166A) and NS B (166B) type compositions on porcine nasal mucosa. Sample 165B is a commercial control. It is of some interest that the treatments appear to result in a reduced response with or without the addition of LPS. The detergents SDS and TX100 produce a maximal response while the LPS produces a range of responses. […] The blinded participation of the Histology expert lends additional strength to the data.

[1] = test system: human bladder tissue explants; assay: Preliminary histology score, ex-vivo human bladder tissue (HBT)
From the text: as §1, §2

Compound | tissue viability (MTT), irritant controls (tissue explants) | PMM Qualitative Score (histology) (porcine vaginal mucosa) | Ordinal score (histology) (porcine nasal tissue) | HBT Qualitative Score (histology) [1] | tissue viability (MTT), irritant controls (tissue explants; all test conditions) | histology observation, porcine vaginal mucosa (porcine vaginal mucosa; LPS combined with TX100) | Ordinal score (histology) (porcine nasal tissue; control agent alone) | histology observation, bladder sections [1] | histology observation, bladder sections ([1]; with addition of LPS)
CCCCCCCCCCCCOS(=O)(=O)[O-].[Na+] [SDS] | decreases in tissue viability | 4+ | 4 | 4+ | – | – | – | – | –
Triton X-100 [TX100] | – | – | – | – | decreases in tissue viability | lost normal structure entirely | 3 | mild cell loss and submucosal edema | –
lipopolysaccharide [LPS] | – | – | – | – | – | – | 1 | – | reactive damage to the bladder sections with a loss of cells on the surface of the section
